The species named for this assay is Mus musculus. The assay is described as follows: Antiinflammatory activity against croton oil-induced ear swelling in BALB/c mouse after 6 hrs. Format: functional.

`COc1cc(C(=O)O[C@H]2[C@@H]3C=CO[C@@H](O[C@@H]4O[C@H](CO)[C@@H](O)[C@H](O)[C@H]4O)[C@@H]3[C@@]3(CO)O[C@@H]23)ccc1O` [PICROSIDE II]: the Activity came to 46%.

(Values after ChEMBL document CHEMBL1144058, “Pikuroside: a novel iridoid from Picrorhiza kurroa” (1999).)
